According to patent US10183950B2, “Thienopyrimidine inhibitors of atypical protein kinase C” (Cancer Research Technology Limited, priority 2011, dated 2019):

target: T1, full-length human PKCι (Homo sapiens, UniProt P41743); test: PKCι IC50 IMAP fluorescence polarisation assay, full-length enzyme; assay type: biochemical; details: enzyme form not given; no asterisk; read-out: Activity (IC50 printed as a bound, no asterisk)
T1 construct: Recombinant, full-length human PKCι expressed in Sf21 insect cells is also commercially available; purchased; host or cells: Sf21 insect cells
T1 sequence (P41743 1-596): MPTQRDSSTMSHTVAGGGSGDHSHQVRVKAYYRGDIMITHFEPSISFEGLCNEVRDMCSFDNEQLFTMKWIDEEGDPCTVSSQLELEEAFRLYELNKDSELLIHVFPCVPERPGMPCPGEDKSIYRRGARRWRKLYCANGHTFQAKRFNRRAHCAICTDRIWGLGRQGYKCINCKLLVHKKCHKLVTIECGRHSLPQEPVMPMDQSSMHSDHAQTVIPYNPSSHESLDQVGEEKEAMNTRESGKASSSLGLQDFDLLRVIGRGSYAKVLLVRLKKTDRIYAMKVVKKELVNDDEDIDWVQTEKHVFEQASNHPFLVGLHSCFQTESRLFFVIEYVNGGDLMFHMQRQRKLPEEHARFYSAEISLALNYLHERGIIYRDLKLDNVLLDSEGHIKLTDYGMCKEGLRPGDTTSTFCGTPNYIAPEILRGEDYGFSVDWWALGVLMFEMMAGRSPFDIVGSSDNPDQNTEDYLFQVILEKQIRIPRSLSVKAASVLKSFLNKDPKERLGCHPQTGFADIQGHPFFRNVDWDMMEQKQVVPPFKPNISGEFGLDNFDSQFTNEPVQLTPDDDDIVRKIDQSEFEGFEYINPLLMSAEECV

SMILES	IC50 [µM]
Cn1cc(-c2nc(NCCN)c3c4c(sc3n2)CCCC4)cn1 [compound 195, N*1*-[2-(1-Methyl-1H-pyrazol-4-yl)-5,6,7,8-tetrahydro-benzo[4,5]thieno[2,3-d]pyrimidin-4-yl]-ethane-1,2-diamine]	> 60

same assay, conditions: full length PKCi at 15 μM ATP; read-out: IC50 in IMAP assay against full length PKCi

SMILES	IC50 [µM]
N[C@H](CNc1nc(-c2ccncc2)nc2c(-c3cc(C4CC4)[nH]n3)csc12)Cc1ccccc1 [compound 418, (S)-N*1*-[7-(5-Cyclopropyl-1H-pyrazol-3-yl)-2-pyridin-4-yl-thieno[3,2-d]pyrimidin-4-yl]-3-phenyl-propane-1,2-diamine]	0.1 to 1
NCCNc1nc(-c2ccncc2)nc2c(-c3ccc(Br)cc3)csc12 [compound 310, N*1*-[7-(4-Bromo-phenyl)-2-pyridin-4-yl-thieno[3,2-d]pyrimidin-4-yl]-ethane-1,2-diamine]	1 to 10
Cn1ccc(-c2csc3c(NC[C@@H](N)Cc4ccccc4)nc(-c4ccncc4)nc23)n1 [compound 415, (S)-N*1*-[7-(1-Methyl-1H-pyrazol-3-yl)-2-pyridin-4-yl-thieno[3,2-d]pyrimidin-4-yl]-3-phenyl-propane-1,2-diamine]	1 to 10
C[C@H](N)CNc1nc(-c2ccncc2F)nc2ccsc12 [compound 353, (S)-N*1*-[2-(3-Fluoro-pyridin-4-yl)-thieno[3,2-d]pyrimidin-4-yl]-propane-1,2-diamine]	10 to 40
Cc1ccc(-c2csc3c(NC[C@@H](N)Cc4ccccc4)nc(-c4ccncc4)nc23)o1 [compound 412, (S)-N*1*-[7-(5-Methyl-furan-2-yl)-2-pyridin-4-yl-thieno[3,2-d]pyrimidin-4-yl]-3-phenyl-propane-1,2-diamine]	1 to 10
COc1cccc(-c2c(C(C)(C)C)sc3c(NC[C@@H](N)Cc4ccccc4)nc(-c4ccncc4)nc23)c1 [compound 441, (S)-N*1*-[6-tert-Butyl-7-(3-methoxy-phenyl)-2-pyridin-4-yl-thieno[3,2-d]pyrimidin-4-yl]-3-phenyl-propane-1,2-diamine]	10 to 40
Brc1csc2c(NC[C@@H]3CCCN3)nc(-c3ccncc3)nc12 [compound 341, (7-Bromo-2-pyridin-4-yl-thieno[3,2-d]pyrimidin-4-yl)-(S)-1-pyrrolidin-2-ylmethyl-amine]	10 to 40
NC(CNc1nc(-c2ccncc2F)nc2c(-c3ccsc3)csc12)Cc1ccccc1 (stereo in doubt) [compound 431, (R)-N*1*-[2-(3-Fluoro-pyridin-4-yl)-7-thiophen-3-yl-thieno[3,2-d]pyrimidin-4-yl]-3-phenyl-propane-1,2-diamine]	1 to 10
Cc1sc2c(NC[C@@H](N)Cc3ccccc3)nc(-c3ccncc3)nc2c1C [compound 325, (S)-N*1*-(6,7-Dimethyl-2-pyridin-4-yl-thieno[3,2-d]pyrimidin-4-yl)-3-phenyl-propane-1,2-diamine]	0.1 to 1
CC(C)(C)c1sc2c(NC[C@@H](N)Cc3ccccc3)nc(-c3ccncc3)nc2c1-c1ccc(F)cc1 [compound 442, (S)-N*1*-[6-tert-Butyl-7-(4-fluoro-phenyl)-2-pyridin-4-yl-thieno[3,2-d]pyrimidin-4-yl]-3-phenyl-propane-1,2-diamine]	10 to 40
CC(C)(C)c1sc2c(NC[C@H](N)Cc3ccccc3)nc(-c3ccncc3)nc2c1Br [compound 335, (R)-N*1*-(7-Bromo-6-tert-butyl-2-pyridin-4-yl-thieno[3,2-d]pyrimidin-4-yl)-3-phenyl-propane-1,2-diamine]	10 to 40
C[C@@H](O)C#Cc1csc2c(NC[C@@H](N)Cc3ccccc3)nc(-c3ccncc3)nc12 [compound 534, (R)-4-[4-((S)-2-Amino-3-phenyl-propylamino)-2-pyridin-4-yl-thieno[3,2-d]pyrimidin-7-yl]-but-3-yn-2-ol]	< 0.1
C[C@H](O)C#Cc1csc2c(NC[C@@H](N)Cc3ccccc3)nc(-c3ccncc3)nc12 [compound 533, (S)-4-[4-((S)-2-Amino-3-phenyl-propylamino)-2-pyridin-4-yl-thieno[3,2-d]pyrimidin-7-yl]-but-3-yn-2-ol]	< 0.1
N[C@H](CNc1nc(-c2cc[n+]([O-])cc2)nc2c(-c3ccn[nH]3)csc12)Cc1ccccc1 [compound 565, (S)—N*1*-[2-(1-Oxy-pyridin-4-yl)-7-(2H-pyrazol-3-yl)-thieno[3,2-d]pyrimidin-4-yl]-3-phenyl-propane-1,2-diamine]	1 to 10

Further lines, results first:

IC50 [µM]	SMILES
1 to 10	O=C(Nc1cc(-c2nc(N[C@H]3CNC[C@@H]3O)c3sccc3n2)ccn1)c1cccs1 [compound 627, Thiophene-2-carboxylic acid {4-[4-((3S,4S)-4-hydroxy-pyrrolidin-3-ylamino)-thieno[3,2-d]pyrimidin-2-yl]-pyridin 2-yl}-amide]
0.1 to 1	Brc1csc2c(N[C@@H]3CCCNC3)nc(-c3ccncc3)nc12 [compound 343, (7-Bromo-2-pyridin-4-yl-thieno[3,2-d]pyrimidin-4-yl)-(R)-piperidin-3-yl-amine]
1 to 10	Fc1cnccc1-c1nc(N[C@@H]2CCNC2)c2scc(Br)c2n1 [compound 352, [7-Bromo-2-(3-fluoro-pyridin-4-yl)-thieno[3,2-d]pyrimidin-4-yl]-(R)-pyrrolidin-3-yl-amine]
0.1 to 1	O=C(Nc1cc(-c2nc(N[C@@H]3CCNC3)c3sccc3n2)ccn1)c1ccc(N2CCOCC2)cc1 [compound 621, 4-Morpholin-4-yl-N-{4-[4-((R)-pyrrolidin-3-ylamino)-thieno[3,2-d]pyrimidin-2-yl]-pyridin-2-yl}-benzamide]
10 to 40	O=C(Nc1csc2c(N[C@@H]3CCNC3)nc(-c3ccncc3)nc12)C1CCCC1 [compound 475, Cyclopentanecarboxylic acid [2-pyridin-4-yl-4-((R)-pyrrolidin-3-ylamino)-thieno[3,2-d]pyrimidin-7-yl]-amide]
0.1 to 1	c1cc(-c2nc(N[C@@H]3CCNC3)c3sccc3n2)cc(Nc2ccc(-c3ccsc3)cc2)n1 [compound 617, (R)-Pyrrolidin-3-yl-{2-[2-(4-thiophen-3-yl-phenylamino)-pyridin-4-yl]-thieno[3,2-d]pyrimidin-4-yl}-amine]
10 to 40	c1cc(-c2nc(N[C@@H]3CCNC3)c3sccc3n2)cc(NC2CCOCC2)n1 [compound 625, (R)-Pyrrolidin-3-yl-{2-[2-(tetrahydro-pyran-4-ylamino)-pyridin-4-yl]-thieno[3,2-d]pyrimidin-4-yl}-amine]
1 to 10	Clc1cnccc1-c1nc(N[C@@H]2CCNC2)c2sccc2n1 [compound 322, [2-(3-Chloro-pyridin-4-yl)-thieno[3,2-d]pyrimidin-4-yl]-(R)-pyrrolidin-3-yl-amine]

same assay, conditions: full length PKCi at 15 μM ATP; read-out: IC50 in IMAP assay against full length PKCi (Activity)

SMILES	IC50 [µM]
CC(C)(C)C(=O)N1CCc2c(sc3nc(-c4ccncc4)nc(NCCN)c23)C1 [compound 104, 1-[4-(2-amino-ethylamino)-2-pyridin-4-yl-5,8-dihydro-6H-pyrido[4′,3′:4,5]thieno[2,3-d]pyrimidin-7-yl]-2,2-dimethyl-propan-1-one]	10 to 40
N[C@H](CNc1nc(-c2ccncc2)nc2sc3c(c12)CCCC3)Cc1cccc(O)c1 [compound 66, 3-[(S)-2-Amino-3-(2-pyridin-4-yl-5,6,7,8-tetrahydro-benzo[4,5]thieno[2,3-d]pyrimidin-4-ylamino)-propyl]-phenol]	0.1 to 1
N[C@H](CNc1nc(-c2ccncc2)nc2sc3c(c12)CCCC3)Cc1cccnc1 [compound 57, (S)-3-Pyridin-3-yl-N*1*-(2-pyridin-4-yl-5,6,7,8-tetrahydro-benzo[4,5]thieno[2,3-d]pyrimidin-4-yl)-propane-1,2-diamine]	0.1 to 1
